Where two headings read alike, the source gives them in different places.
Columns and labels:
[1] = test system: vitamin D (25, 1,25, 24,25); test: Vitamin D (25, 1,25, 24,25) levels by LC-MS/MS, trials IDA-04/IDA-05; assay type: in vivo, human; details: IDA-04 and IDA-05 combined
Method: The term “serum vitamin D” as used herein refers to the level of vitamin Ds, in particular 25-hydroxyvitamin D, 1,25-dihydroxyvitamin D, and 24,25-dihydroxyvitamin D, in blood serum as measured by Liquid Chromatography and Tandem Mass Spectrometry (LC-MS/MS).
The trial was a randomized, open-label, comparative trial. […]
(§1) The following safety laboratory assessments were analysed: • S-phosphate: inorganic phosphorous forms an ammonium phosphomolybdate complex having the formula (NH4)3[PO4](MoO3)12 with ammonium molybdate in the presence of sulfuric acid. The complex was determined photometrically in the ultraviolet region (340 nm) of the spectrum using the Roche Modular and Cobas Analyzer. • iFGF23 and cFGF23: the human intact FGF23 was measured by the 2nd generation Elisa kit manufactured by Immonotropics, Inc, San Clemente, CA. […] The human C-terminal FGF23 was measured by the Elisa kit manufactured by Immonotropics, Inc, San Clemente, CA. […] After evaporation under nitrogen, the residue was reconstituted and analyzed using Liquid Chromatography (LC) with Tandem Mass Spectrometric detection (MS/MS). […]

[2] = Incidence of hypophosphatemia / s-phosphate in randomized open-label trials IDA-04 and IDA-05; assay type: in vivo, human
Method: Two prospective randomized, open-label, comparative trials were performed comparing the incidence of hypophosphatemia in relation to treatment with iron isomaltoside (“IIM”, tradename Monofer®, Monoferric®) and ferric carboxymaltose (“FCM”, trade name Injectafer, Ferinject) in adult human subjects with iron deficiency anaemia.
The trial was a randomized, open-label, comparative trial. Subjects with Iron Deficiency Anaemia (IDA) were randomized 1:1 to one treatment course of one of the following treatments: • Group A: iron isomaltoside 1000 (Monofer®, Pharmacosmos, Holbok, Denmark, termed iron isomaltoside in the following), 1000 mg at baseline • Group B: ferric carboxymaltose (Ferinject®/Injectafer®, Vifor Inc, Switzerland), 750 mg at baseline and day 7, cumulative dose: 1500 mg
The primary endpoint was the incidence of hypophosphatemia (defined as s-phosphate <2 mg/dL) at any time from baseline to day 35. […]
as §1

[3] = cited from earlier work
[4] = FCM 750 mg at baseline and day 7 vs JIM 1000 mg at baseline, subjects with IDA, baseline to day 35
[5] = compared to iron dextran, iron sucrose and iron isomaltoside 1000

1,25-dihydroxyvitamin D [1]: decrease
24,25-dihydroxyvitamin D [1]: increase
Substance: ferric carboxymaltose [FCM]
rate of hypophosphatemia, moderate to severe form with serum phosphate below 2 mg/dL [2, 4]: significantly higher
rate of hypophosphatemia, severe form of serum phosphate at or below 1.0 mg/dL [2, 4]: significantly higher
serum phosphate ([2]; after FCM treatment): decrease
risk for iFGF23-mediated reduction of serum phosphate levels and development of hypophosphatemia ([3]; clinical trials and case reports, Wolf et al., 2013): highest risk
time to minimum serum phosphorous values ([3]; clinical trials, EU SmPC): approximately 2 weeks
prevalence of hypophosphatemia [3, 5]: higher prevalence
reduction in serum phosphate [3, 5]: larger and longer reduction
time until serum phosphorous returned to within the range of baseline ([3]; following treatment, clinical trials, EU SmPC): 4 to 12 weeks
serum phosphate ([3]; women with IDA secondary to heavy uterine bleeding, Wolf et al., 2013): reduced

Reference: patent US20260091015A1, “TREATING IRON DEFICIENCY WITH FERRIC CARBOXYMALTOSE” (PHARMACOSMOS HOLDING A/S, priority 2018, published 2026)
